The supplement of paper PMC10307832

Columns and labels:
Test in all cases: relative viability (nuclei count vs DMSO), 5 days (fraction); higher = more cells survive
GSK126 + Alpelisib = compound: CC[C@H](C)N1C=C(C2=C(C=C(C=C21)C3=CN=C(C=C3)N4CCNCC4)C(=O)NCC5=C(C=C(NC5=O)C)C)C [GSK126] + Cc1nc(NC(=O)N2CCC[C@H]2C(N)=O)sc1-c1ccnc(C(C)(C)C(F)(F)F)c1 [Alpelisib] (partner 2 µM)
Outline: (§1)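 Nuclei were stained with Hoechst during a one-step fixation (final 0.05% Triton X-100, 1% formaldehyde, 1 ug/ml Hoechst) carried out 5 days after dosing, then counted on 4× images. The cells, lung cancer lines in 1536-well plates, had been dosed by pin tool the day after seeding with one drug alone or a fixed anchor-drug dose plus five library-drug doses (not always all listed) in √10 steps. Relative viability is the nuclei count in treated wells divided by that in vehicle wells, and each value is the median of duplicate plates.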

MLN4924 + Alpelisib = compound: NS(=O)(=O)OC[C@@H]1C[C@@H](n2ccc3c(N[C@H]4CCc5ccccc54)ncnc32)C[C@@H]1O [MLN4924] + Cc1nc(NC(=O)N2CCC[C@H]2C(N)=O)sc1-c1ccnc(C(C)(C)C(F)(F)F)c1 [Alpelisib] (partner 2 µM)
Outline: as §1

GSK126 + Crizotinib = compound: CC[C@H](C)N1C=C(C2=C(C=C(C=C21)C3=CN=C(C=C3)N4CCNCC4)C(=O)NCC5=C(C=C(NC5=O)C)C)C [GSK126] + C[C@@H](Oc1cc(-c2cnn(C3CCNCC3)c2)cnc1N)c1c(Cl)ccc(F)c1Cl [Crizotinib] (partner 1 µM)
Outline: as §1

Carboplatin + Alpelisib = compound: C1CC(C1)(C(=O)O)C(=O)O.[NH2-].[NH2-].[Pt+2] [Carboplatin] + Cc1nc(NC(=O)N2CCC[C@H]2C(N)=O)sc1-c1ccnc(C(C)(C)C(F)(F)F)c1 [Alpelisib] (partner 2 µM)
Outline: as §1

Cell Line | relative viability (GSK126 + Alpelisib; first compound 0.08 µM) | relative viability (GSK126 + Alpelisib; first compound 0.253 µM) | relative viability (GSK126 + Alpelisib; first compound 0.8 µM) | relative viability (GSK126 + Alpelisib; first compound 2.53 µM) | relative viability (GSK126 + Alpelisib; first compound 8 µM) | relative viability (MLN4924 + Alpelisib; first compound 0.04 µM) | relative viability (MLN4924 + Alpelisib; first compound 0.1265 µM) | relative viability (MLN4924 + Alpelisib; first compound 0.4 µM) | relative viability (MLN4924 + Alpelisib; first compound 1.265 µM) | relative viability (MLN4924 + Alpelisib; first compound 4 µM) | relative viability (GSK126 + Crizotinib; first compound 0.08 µM) | relative viability (GSK126 + Crizotinib; first compound 0.253 µM) | relative viability (GSK126 + Crizotinib; first compound 0.8 µM) | relative viability (GSK126 + Crizotinib; first compound 2.53 µM) | relative viability (GSK126 + Crizotinib; first compound 8 µM) | relative viability (Carboplatin + Alpelisib; first compound 0.08 µM) | relative viability (Carboplatin + Alpelisib; first compound 0.253 µM) | relative viability (Carboplatin + Alpelisib; first compound 0.8 µM) | relative viability (Carboplatin + Alpelisib; first compound 2.53 µM) | relative viability (Carboplatin + Alpelisib; first compound 8 µM)
201T | 0.999 | 1.07 | 1.02 | 1.05 | 1.1 | 1.24 | 1.11 | 1.17 | 0.344 | 0.392 | 1.1 | 1.06 | 1.03 | 0.93 | 1.09 | 1.07 | 1.07 | 1.04 | 1.01 | 0.926
A549 | 0.917 | 0.75 | 0.749 | 0.826 | 0.796 | 0.657 | 0.748 | 0.61 | 0.05 | 0.05 | 0.925 | 0.677 | 0.709 | 0.807 | 0.652 | 0.811 | 0.901 | 0.854 | 0.674 | 0.234
A-427 | 1.12 | 1.07 | 1.05 | 1.16 | 1.06 | 0.728 | 0.334 | 0.28 | 0.183 | 0.2 | 0.898 | 1.01 | 0.857 | 0.856 | 0.84 | 1.14 | 1.09 | 1.02 | 1.05 | 1.06
ABC-1 | 1.19 | 1.31 | 1.02 | 1.11 | 1.01 | 1.18 | 0.95 | 0.352 | 0.264 | 0.262 | 1.06 | 1.16 | 1.23 | 1.17 | 0.937 | 1.04 | 1.16 | 1.04 | 0.919 | 0.664
BEN | 1.1 | 0.996 | 1.04 | 1.16 | 0.734 | 0.868 | 0.458 | 0.372 | 0.151 | 0.147 | 0.892 | 0.87 | 0.832 | 0.823 | 0.671 | 1.11 | 1.04 | 0.891 | 0.798 | 0.909
CAL-12T | 1.31 | 1.3 | 1.08 | 1.22 | 1.39 | 1.09 | 1.18 | 0.39 | 0.529 | 0.191 | 0.805 | 0.67 | 0.699 | 0.398 | 0.441 | 1.18 | 1.05 | 1.2 | 1.23 | 1.12
COR-L23 | 0.814 | 0.826 | 0.792 | 0.755 | 0.647 | 0.722 | 0.689 | 0.561 | 0.159 | 0.116 | 0.663 | 0.559 | 0.659 | 0.611 | 0.713 | 0.724 | 0.721 | 0.74 | 0.663 | 0.272
COR-L 105 | 0.984 | 1.03 | 0.927 | 1.02 | 0.966 | 0.836 | 0.702 | 0.413 | 0.257 | 0.31 | 0.859 | 0.935 | 0.783 | 0.687 | 0.62 | 1.01 | 1.07 | 0.893 | 0.959 | 0.566
Calu-6 | 1.04 | 0.983 | 1 | 1.01 | 1.07 | 1.09 | 1.07 | 0.388 | 0.14 | 0.148 | 0.906 | 0.749 | 0.806 | 0.844 | 0.759 | 1 | 0.913 | 1.04 | 0.856 | 0.4
ChaGo-K-1 | – | – | – | – | – | – | – | – | – | – | 0.998 | 1.09 | 0.976 | 1.14 | 1.12 | – | – | – | – | –
EBC-1 | 1.03 | 0.792 | 0.783 | 0.729 | 0.762 | 0.78 | 0.768 | 0.276 | 0.132 | 0.151 | 0.204 | 0.203 | 0.182 | 0.193 | 0.173 | 0.85 | 0.827 | 0.809 | 0.799 | 0.77
EKVX | 0.961 | 0.92 | 0.819 | 0.813 | 0.746 | 0.926 | 0.748 | 0.519 | 0.164 | 0.144 | 0.899 | 0.921 | 0.895 | 0.978 | 1.09 | 0.908 | 0.877 | 0.743 | 0.783 | 0.87
EMC-BAC-2 | 0.785 | 0.77 | 0.718 | 0.731 | 0.765 | 0.806 | 0.326 | 0.194 | 0.15 | 0.14 | 0.772 | 0.765 | 0.718 | 0.723 | 0.701 | 0.816 | 0.719 | 0.762 | 0.734 | 0.714
EPLC-272H | 1.05 | 0.997 | 0.919 | 0.951 | 0.902 | 1.05 | 0.957 | 0.131 | 0.136 | 0.195 | 1.07 | 0.843 | 0.909 | 0.719 | 0.789 | 0.966 | 0.931 | 0.936 | 0.986 | 0.843
H3255 | 0.716 | 0.679 | 0.847 | 0.643 | 0.738 | 0.694 | 0.548 | 0.265 | 0.175 | 0.242 | 1.02 | 0.814 | 0.819 | 0.866 | 0.794 | 0.685 | 0.698 | 0.673 | 0.657 | 0.575
HARA | 0.961 | 0.804 | 0.783 | 0.738 | 0.788 | 0.716 | 0.576 | 0.249 | 0.0868 | 0.0836 | 1.13 | 0.986 | 1.01 | 1.12 | 0.817 | 0.814 | 0.812 | 0.714 | 0.719 | 0.73
HCC-15 | 0.915 | 0.88 | 0.816 | 0.858 | 0.759 | 0.537 | 0.23 | 0.163 | 0.0818 | 0.0862 | 0.882 | 0.873 | 0.786 | 0.748 | 0.709 | 0.93 | 0.93 | 0.84 | 0.761 | 0.707
